The values below come from patent publication US8415393B2, “Anti-bacterial drug targeting of genome maintenance interfaces” (Wisconsin Alumni Research Foundation, priority 2007, dated 2013).

The subject of series [1] is E. coli 4213 (imp4213, compromised cell wall). Briefly: microbe, parasite or virus in culture. The series is classed as cell-based. As to conditions: Escherichia coli. On the procedure:
The compromised cell wall allows the chemicals to pass through it more readily.
(§1) 100 μL of LB containing E. coli 1655, E. coli 4213, or S. aureus at A ˜0.05 OD 600 was aliquoted in 96 well plates. One μL of compound in DMSO was added to final concentrations given. Plates were incubated at 37° C. with shaking at 250 RPM. Rate of growth was calculated by determining the average change in OD/hour that took place between hours 3 and 7 (log growth phase). The graphs shown herein are plots of this bacterial growth rate (change in OD/h) against inhibitor concentration in μM.

Series [2] addresses Exonuclease I/SSB-Ct complex (Escherichia coli, UniProt P04995). The series is described as follows: Fluorescence polarization competition: inhibition of fluorescein-SSB C-terminal peptide binding to Exonuclease I (HTS and Ki determination). As to conditions: for peptide binding inhibition: ExoI/SSB-Ct peptide. On the procedure:
Peptide binding assays were performed in solution, using the peptides from above, and Exonuclease I, in the absence or presence of various compounds. Different amounts of Exonuclease I (ExoI) were used in the peptide binding assays. […] Fluorescence polarization (FP) was measured at 25° C. in triplicate; the average FP value was plotted with standard deviation of the mean shown as error.
Concentrated Exonuclease I was dialyzed overnight into 2 liters dilution buffer (DB) (20 mM Tris pH 8.0 HCl, 100 mM NaCl, 1 mM MgCl2, and 1 mM Beta-Mercaptoethanol). […] After sitting at room temperature for 5 min, a liquid handling system was used to aliquot this solution into 384 well plates providing 30 microliters/well. One microliter of 1 mM compound was then added. The screened compounds were obtained from the ChemBridge DIVERSet library (ChemBridge Corporation, San Diego, Calif.), from the Maybridge HitFinder library (Thermo Fisher Scientific, Waltham, Mass.), from the ChemDiv library (Chemical Diversity Labs, San Diego, Calif.), or from the Known Bioactive Library—KBA01.
The FP (fluorescence polarization) values for each well were read using a (plate reader) 5 minutes after compound addition.
Increasing amounts of compound were titrated into peptide protein mixture until FP values were lowered to values given by only fluorescently labeled peptide alone. Ki values were determined using the Ki calculator for fluorescence-based competitive binding assays of Prof. Shaomeng Wang, University of Michigan (Nikolovska-Coleska et al., 2004, Anal. Biochem. 332: 261-273).
(Fluorescence polarisation rises when a labelled molecule tumbles more slowly, as on binding a larger partner.)

In series [3] the test system is E. coli (imp4213). The series is described as follows: MIC on solid media, E. coli. The format is cell-based. Particulars: Escherichia coli, read-out: MIC (E. coli).
Series [4] relates to B. subtilis. Briefly: Growth on solid media (MIC; agar plates with compound), B. subtilis. The series is classed as cell-based, Bacillus subtilis. On the procedure: A number of the tested candidate compounds had profound inhibitory effects on bacterial growth. In addition, it was discovered that the identified drug compounds can slow the growth of a number of other Gram-positive bacterial species. For example, the growth of Bacillus subtilis and Enterococcus faecalis was inhibited when these bacteria were grown on agar plates containing 100 μM of either compound 9 or compound 10.

The test system of series [5] is Staphylococcus aureus 12598. The series is described as follows: Bacterial growth assay in LB liquid media, S. aureus. The series is classed as cell-based. Here is the method: as §1
Series [6] relates to red blood cells. The series is described as follows: In vitro hemolysis. The series is classed as cell-based. As to conditions: for % hemolysis at given concentration: 1 hour; for Hemolysis: Table 3, minimum concentration necessary to lyse red blood cells. On the procedure:
The identified small molecules were incubated with red blood cells to see what percentage of cells would lyse after 1 hour. Estimated hemolysis data are due to problem with reading absorbance, when the compound absorbs at the same wavelength as heme or if the compound precipitates. In such instances it is difficult to quantitate the absorbance readings; however, visual determination of how many cells have lysed can then be performed, which provides an estimate of cell lysis.

For series [7], the system named is HT-29 (human colorectal adenocarcinoma) cells. The series is described as follows: Mammalian cell toxicity, CellTiter-Glo cell viability assay. The series is classed as cell-based. Here is the method:
The toxicity of the identified antimicrobial candidate compounds was tested using human colorectal adenocarcinoma cells in vitro. […] The mammalian cells were tested using a CellTiter-Glo cell viability assay (Promega, Madison, Wis.).

Series [8] has as its target T1, fluorescein-labeled SSB C-terminal peptide, fluorescein-WMDFDDDIPF (E. coli).
T1 construct: also called F-WT; F-SSB-Ct
T1 peptide: fluorescein-WMDFDDDIPF
The series is described as follows: equilibrium fluorescence anisotropy.

The mark [9] stands for this setting: read-out: IC50 μM inhibitor, inhibition of E. coli growth.
The mark [10] stands for this setting: read-out: IC(50) E. coli imp4213.
Where [11] appears, read: Staphylococcus aureus, 12598, Table 3, reduce growth 50% in liquid media, unit not given (Table 5 gives μM), read-out: IC(50) S. aureus.
Where [12] appears, read: Staphylococcus aureus, 12598, Table 5, read-out: IC50 μM inhibitor, inhibition of S. aureus growth.
[13] abbreviates: HT-29 cells, CellTiter-Glo, read-out: IC50.

Substitutions are numbered along the chain they refer to. In names and notes the source's numbering stands. In brackets after ≈: the same amount, converted by molar mass. Entries after “also recorded” stand apart in the source; their conditions may differ. Like-named read-outs stand apart in the source and are kept apart here. Where no end group is shown, it is not given here. fluorescein = fluorescein moiety attached to the N-terminus of the peptide (N-terminal fluorescein label) A value given as a limit tells only on which side of the number the result lay.

Chain of Exonuclease I/SSB-Ct complex (P04995 whole entry, one chain of several): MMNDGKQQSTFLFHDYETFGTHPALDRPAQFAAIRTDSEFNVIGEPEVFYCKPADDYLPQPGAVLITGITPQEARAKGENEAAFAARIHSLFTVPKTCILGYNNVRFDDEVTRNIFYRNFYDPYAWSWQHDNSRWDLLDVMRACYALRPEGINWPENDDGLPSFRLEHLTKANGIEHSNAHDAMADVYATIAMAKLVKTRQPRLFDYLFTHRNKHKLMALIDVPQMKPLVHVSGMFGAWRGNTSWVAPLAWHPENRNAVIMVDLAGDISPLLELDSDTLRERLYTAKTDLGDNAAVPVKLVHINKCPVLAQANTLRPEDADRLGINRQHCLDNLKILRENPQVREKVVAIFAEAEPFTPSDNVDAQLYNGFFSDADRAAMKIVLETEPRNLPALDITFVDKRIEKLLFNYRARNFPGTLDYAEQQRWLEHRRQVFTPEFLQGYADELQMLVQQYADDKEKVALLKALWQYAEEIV

Consider `O=C(O)C(Cc1ccccc1)N1C(=O)/C(=C/c2cccc(Br)c2)SC1=S` (stereo not drawn) [Compound 3, 2-[5-(3-bromobenzylidene)-4-oxo-2-thioxo-1,3-thiazolidin-3-yl]-3-phenylpropanoic acid], for which the IC50 in series [1] (setting [9]) turned out to be 6 µM; in series [1] (read-out: IC50 E. coli 4213), 5.5 µM; in series [1] (setting [10]) it was 6 µM; in series [5] (setting [11]) it was 9 µM; in series [5] (setting [12]) it was 9 µM; in series [5] (Staphylococcus aureus, 12598, compound listing, bacterial growth in LB, read-out: IC50 Staphylococcus aureus), 10 µM. The IC50 in series [7] (HT-29, Table 3, unit inferred, read-out: IC(50) Human cell line) is 12 µM; in series [7] (setting [13]), greater than 100 µM. Moreover, the Ki in series [2] is 2.5 µM; in series [2] (Ki estimates, Table 2), 2.5 µM; in series [2] (Ki, compound listing), roughly 2.5 µM. In addition, the MIC in series [3] was determined as 3.6 µg/mL (≈ 8.03 µM); in series [4] (Bacillus subtilis, solid media, B. subtilis), 3.6 µg/mL (≈ 8.03 µM). The “Bactericidal for B. subtilis” value in series [4] (Table 3 info column) was “Compound 3; also called BOTP. Came from original Maybridge HTS collection. Bactericidal for B. subtilis”. Further, the “% hemolysis at given concentration” value in series [6] (100 μM) is reported as 20% 100. The Hemolysis in series [6] is roughly 100 µM.

In the case of `CC(C)c1cc(O)n(-c2nc3ccccc3s2)n1` [Compound 29, 1-(1,3-benzothiazol-2-yl)-3-isopropyl-1H-pyrazol-5-ol], the IC50 was 88 µM in series [1] (setting [9]), 88 µM in series [1] (setting [10]) and greater than 100 µM in series [7] (HT-29). For the same molecule, the “peptide binding inhibition” value in series [2] is listed as “did not inhibit binding”. Moreover, the “% hemolysis at given concentration” value in series [6] (>800 μM) is recorded as 0% >800. The molecule further gave a Hemolysis in series [6] greater than 800 µM.

In the case of `O=[N+]([O-])c1ccc(Oc2cc(C(F)(F)F)ccc2Cl)cc1O` [Compound 37, 5-[2-chloro-5-(trifluoromethyl)phenoxy]-2-nitrophenol], the IC50 in series [1] (setting [9]) is 33 µM; in series [1] (setting [10]), 33 µM; in series [5] (Staphylococcus aureus, 12598, read-out: IC50 μM inhibitor, inhibition of S. aureus growth), 2.5 µM; in series [5] (Staphylococcus aureus, 12598, read-out: IC(50) S. aureus), 2.5 µM; in series [7] (HT-29), greater than 100 µM. The Ki was 0.7 µM in series [2] and 0.7 µM in series [2] (Ki estimates, Table 2). For the same molecule, in series [6] (800 μM), the “% hemolysis at given concentration” value is “estimated 0% 800”. In addition, the Hemolysis in series [6] was greater than 800 µM.

On to `CC1=NN(c2nc3ccccc3s2)C(=O)C1` [Compound 31, 2-(1,3-benzothiazol-2-yl)-5-methyl-2,4-dihydro-3H-pyrazol-3-one], for which the IC50 in series [1] (setting [9]) and in series [1] (setting [10]) was 50 to 100 µM in each case. The “peptide binding inhibition” value in series [2] is “much weaker binding; also recorded: did not inhibit binding”. For the same molecule, the “% hemolysis at given concentration” value in series [6] (>800 μM) amounted to 0% >800. The Hemolysis in series [6] is greater than 800 µM.

Consider `CC1=NN(c2nc3ccc(Cl)cc3s2)C(=O)C1` [Compound 46, 1-(6-chloro-1,3-benzothiazol-2-yl)-3-methyl-4,5-dihydro-1H-pyrazol-5-one], for which the Ki is 1.5 µM in series [2] and 1.5 µM in series [2] (Ki estimates, Table 2). Further, the “% hemolysis at given concentration” value in series [6] (>800 μM) worked out at 0% >800. This molecule yielded a Hemolysis in series [6] greater than 800 µM. Also, the IC50 in series [7] (setting [13]) was 55 µM.

For the molecule `Cc1nn(-c2nc3ccccc3s2)c(O)c1C` [Compound 28, 1-(1,3-benzothiazol-2-yl)-3,4-dimethyl-1H-pyrazol-5-ol], the values for the IC50 in series [1] (setting [9]), in series [1] (setting [10]) and in series [7] (HT-29) were 38 µM, 38 µM and greater than 100 µM, respectively. Further, in series [2], the “peptide binding inhibition” value is on record as “did not inhibit binding”. Also, the “% hemolysis at given concentration” value in series [6] (>800 μM) is recorded as 0% >800. The Hemolysis in series [6] was greater than 800 µM.

Regarding `Cc1noc(C)c1C(=O)Nc1nc2ccc(Cl)cc2s1` [Compound 42, N-(6-chloro-1,3-benzothiazol-2-yl)-3,5-dimethyl-4-isoxazolecarboxamide], the IC50 came out at 9 µM in series [5] (setting [11]), 9 µM in series [5] (setting [12]) and 51 µM in series [7] (setting [13]). In addition, the “% hemolysis at given concentration” value in series [6] (>800 μM) amounted to 0% >800. The same molecule gave a Hemolysis in series [6] greater than 800 µM.

`O=C(O)c1ccccc1Nc1cccc(C(F)(F)F)c1` [Compound 32, 2-[3-(trifluoromethyl)anilino]benzoic acid]: the IC50 is 33 µM in series [1] (setting [9]); 33 µM in series [1] (setting [10]); 30 µM in series [5] (setting [11]); 30 µM in series [5] (setting [12]); greater than 100 µM in series [7] (setting [13]). The Ki in series [2] was 1.5 µM; in series [2] (Ki estimates, Table 2), 1.5 µM. The “% hemolysis at given concentration” value in series [6] (>800 μM) was 0% >800. In addition, the Hemolysis in series [6] is greater than 800 µM.

B1: ExoI Arg148 Ala variant (enzyme)
chain: MMNDGKQQSTFLFHDYETFGTHPALDRPAQFAAIRTDSEFNVIGEPEVFYCKPADDYLPQPGAVLITGITPQEARAKGENEAAFAARIHSLFTVPKTCILGYNNVRFDDEVTRNIFYRNFYDPYAWSWQHDNSRWDLLDVMRACYALAPEGINWPENDDGLPSFRLEHLTKANGIEHSNAHDAMADVYATIAMAKLVKTRQPRLFDYLFTHRNKHKLMALIDVPQMKPLVHVSGMFGAWRGNTSWVAPLAWHPENRNAVIMVDLAGDISPLLELDSDTLRERLYTAKTDLGDNAAVPVKLVHINKCPVLAQANTLRPEDADRLGINRQHCLDNLKILRENPQVREKVVAIFAEAEPFTPSDNVDAQLYNGFFSDADRAAMKIVLETEPRNLPALDITFVDKRIEKLLFNYRARNFPGTLDYAEQQRWLEHRRQVFTPEFLQGYADELQMLVQQYADDKEKVALLKALWQYAEEIV
notes: peptide-A-site variant; also called R148A; Arg148 variant
In the case of B1, the “fold weaker binding than wild-type ExoI” value in series [8] lay within 10 to 100 fold.

B2: ExoI Arg316 Ala variant (enzyme)
chain: B1 chain with A148R, R316A
notes: peptide-A-site variant; also called R316A; Arg316 variant
As for B2, in series [8], the “fold weaker binding than wild-type ExoI” value was 10 to 100 fold.

B3: ExoI Glu318 Ala variant (enzyme)
chain: B1 chain with A148R, E318A
notes: also called E318A; Glu318 variant
Turning to B3, the “fold enhanced binding relative to wild-type ExoI” value in series [8] is roughly 2 fold.

B4: ExoI Gln311 Ala variant (enzyme)
chain: B1 chain with A148R, Q311A
notes: peptide-A-site variant; also called Q311A; Gln311 variant
As to B4, the “fold binding defect relative to wild-type ExoI” value in series [8] was 2 fold.

B5: ExoI Glu150 Ala variant (enzyme)
chain: B1 chain with A148R, E150A
notes: also called E150A; Glu150 variant
With B5, the “fold enhanced binding relative to wild-type ExoI” value in series [8] was roughly 2 fold.

B6: ExoI Arg338 Ala variant (enzyme)
chain: B1 chain with A148R, R338A
notes: basic ridge variant; also called R338A; Arg338 variant
On to B6, for which, in series [8], the fold binding defect amounted to 3 fold.

B7: ExoI Asp319 Ala variant (enzyme)
chain: B1 chain with A148R, D319A
notes: also called D319A; Asp319 variant
In turn, B7 gave a fold binding defect in series [8] of 2 fold.

B8: ExoI Lys227 Ala variant (enzyme)
chain: B1 chain with A148R, K227A
notes: basic ridge variant; also called K227A; Lys227 variant
B8 returned a fold binding defect in series [8] of 7 fold.

The term Ki denotes the dissociation constant of the complex between target and ligand, obtained from inhibition or displacement. One may read the MIC as the smallest concentration in the dilution series that meets the test's criterion for growth inhibition.
